Source: US20070185119A1, “Therapeutic agents II” (ASTRAZENECA AB, priority 2004, published 2007)

Target: T1, human Melanin concentrating hormone receptor 1 (MCH1r) (Homo sapiens, UniProt Q99705)
T1 construct: expressed in transfected cells; host or cells: CHO-K1 cells (membranes)
Experiment: MCH1 receptor radioligand binding (125I-MCH, CHO-K1 cell membranes)
Settings: human MCHr binding assay
Description: MCH1 Receptor Radioligand Binding.
Assays were performed on membranes prepared from CHO-K1 cells expressing the human Melanin concentrating hormone receptor 1 (MCH1r). Assays were performed in a 96-well plate format in a final reaction volume of 200 μl per well. Each well contained 6 μg of membrane proteins diluted in binding buffer (50 mM Tris, 3 mM MgCl2, 0.05% bovine serum albumin (BSA) and the radioligand ^125I-MCH (IM344 Amersham) was added to give 10 000 cpm (counts per minute) per well. Each well contained 2 μl of the appropriate concentration of competitive antagonist prepared in DMSO and left to stand at 30° C. for 60 minutes. Non-specific binding was determined as that remaining following incubation with 1 μM MCH (Melanin concentrating hormone, H-1482 Bachem). The reaction was terminated by transfer of the reaction to GF/A filters using a Micro96 Harvester (Skatron Instruments, Norway). Filters were washed with assay buffer. Radioligand retained on the filters was quantified using a1450 Microbeta TRILUX (Wallac, Finland).
Non-specific binding was subtracted from all values determined. Maximum binding was that determined in the absence of any competitor following subtraction of the value determined for non-specific binding. […]

T1 sequence (Q99705 whole entry): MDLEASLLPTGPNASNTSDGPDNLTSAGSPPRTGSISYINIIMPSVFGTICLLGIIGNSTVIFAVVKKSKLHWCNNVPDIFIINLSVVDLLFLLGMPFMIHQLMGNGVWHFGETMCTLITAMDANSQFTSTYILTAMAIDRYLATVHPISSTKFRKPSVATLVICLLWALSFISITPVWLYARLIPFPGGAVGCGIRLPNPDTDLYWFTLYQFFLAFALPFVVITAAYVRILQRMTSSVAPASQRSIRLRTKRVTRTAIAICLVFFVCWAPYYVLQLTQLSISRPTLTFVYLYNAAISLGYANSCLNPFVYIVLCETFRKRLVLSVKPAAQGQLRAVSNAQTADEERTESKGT

- IC50: 15 nM
SMILES: CN(C)c1nc(N[C@H]2CCC[C@H](NCc3cn(C)c4ccccc34)C2)nc2ccccc12 (relative stereo) [Example 4, N^4,N^4-dimethyl-N^2-(-3-{[(1-methyl-1H-indol-3-yl)methyl]amino}-trans-cyclohexyl)quinazoline-2,4-diamine]
